IC50 data for 29 compounds are collected here from US20230312587A1, “PTERIDINONE COMPOUNDS AND USES THEREOF” (Vertex Pharmaceutical Incorporated, priority 2018, published 2023).

Where two headings read alike, the source gives them in different places.

As usually defined, the IC50 is the point on the concentration scale where inhibition reaches its midpoint.

For this experiment, the system named is β-catenin-TCF-mediated reporter transcription activity in Colo 205 cells. Nature of the experiment: Colo 205 reporter assay (TCF/LEF luciferase). The class given is cell-based. The settings on record: Colo 205 TCF/LEF luciferase reporter, read-out: TCF reporter Colo205 IC50. The method in brief: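 Luciferase signal from a TCF/LEF-driven reporter, stably integrated in Colo 205 colon cancer cells, was measured 5 h after compound addition.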
In general terms: In a reporter assay the amount or activity of a reporter protein is the signal.

[1] abbreviates: Homo sapiens, COLO 205, 5 h, five hours after addition of compound.

For `Cc1nc(NCc2cnn(C3CCN(c4ccc(F)cc4)CC3)c2)nc2c1NC(=O)[C@H](C)N2C` [Compound 130, (7S)-2-(((1-(1-(4-fluorophenyl)piperidin-4-yl)-1H-pyrazol-4-yl)methyl)amino)-4,7,8-trimethyl-7,8-dihydropteridin-6(5H)-one], the half-maximal inhibitory concentration (IC50) under setting [1] was at least 5 µM. On to `Cc1nc(N[C@H]2C[C@H](Oc3cnc(C(F)(F)F)nc3)C2)nc2c1N(C)C(=O)[C@H](C)N2C` [Compound 334, (7S)-4,5,7,8-tetramethyl-2-((trans-3-((2-(trifluoromethyl)pyrimidin-5-yl)oxy)cyclobutyl)amino)-7,8-dihydropteridin-6(5H)-one], for which the 50% inhibitory concentration (IC50) under setting [1] fell in the range of 0.3 to 1 µM. As for `Cc1nc(N[C@H](C)c2cnn(Cc3ccc(C(F)(F)F)nc3)c2)nc2c1NC(=O)[C@H](C)N2C` [Compound 217, (7S)-4,7,8-Trimethyl-2-(((R)-1-(1-((6-(trifluoromethyl)pyridin-3-yl)methyl)-1H-pyrazol-4-yl)ethyl)amino)-7,8-dihydropteridin-6(5H)-one], the IC50 under setting [1] is at least 5 µM. For `Cc1nc(NCc2cnn(Cc3ccc(C(F)(F)F)nc3)c2)nc2c1NC(=O)[C@H](C1CCC1)N2C` [Compound 567, (7S)-7-cyclobutyl-4,8-dimethyl-2-(((1-((6-(trifluoromethyl)pyridin-3-yl)methyl)-1H-pyrazol-4-yl)methyl)amino)-7,8-dihydropteridin-6(5H)-one], the IC50 under setting [1] was below 0.3 µM.

With `CO[C@H](C)[C@H]1C(=O)N(C)c2cnc(NCc3cnn(Cc4ccc(F)cc4)c3)nc2N1C` [Compound 20, (7S)-2-(((1-(4-fluorobenzyl)-1H-pyrazol-4-yl)methyl)amino)-7-((R)-1-methoxyethyl)-5,8-dimethyl-7,8-dihydropteridin-6(5H)-one], the half-maximal inhibitory concentration (IC50) under setting [1] fell in the range of 0.3 to 1 µM. With `Cc1nc(N[C@H]2C[C@H](Nc3ccc(C(F)(F)F)cn3)C2)nc2c1NC(=O)[C@H](C(C)C)N2C` [Compound 533, (S)-7-isopropyl-4,8-dimethyl-2-((trans-3-((5-(trifluoromethyl)pyridin-2-yl)amino)cyclobutyl)amino)-7,8-dihydropteridin-6(5H)-one], the 50% inhibitory concentration (IC50) under setting [1] lay within 0.3 to 1 µM. `Cc1nc(NCc2cnn(Cc3cn(C)nc3C(F)(F)F)c2)nc2c1NC(=O)[C@H](C)N2C` [Compound 159, (7S)-4,7,8-trimethyl-2-(((1-((1-methyl-3-(trifluoromethyl)-1H-pyrazol-4-yl)methyl)-1H-pyrazol-4-yl)methyl)amino)-7,8-dihydropteridin-6(5H)-one]: the IC50 under setting [1] is 0.3 to 1 µM. On the same count and under the same terms, the value for `Cc1nc(NC2CN(C(=O)C3(C)CCCO3)C2)nc2c1NC(=O)[C@H](C(C)C)N2C` (stereo partly drawn) [Compound 638, (7S)-7-isopropyl-4,8-dimethyl-2-((1-(2-methyltetrahydrofuran-2-carbonyl)azetidin-3-yl)amino)-7,8-dihydropteridin-6(5H)-one] was at least 5 µM; that for `Cc1nc(NCc2cnn(C[C@@H](C)c3ccccc3)c2)nc2c1NC(=O)[C@H](C)N2C` [Compound 89, (7S)-4,7,8-trimethyl-2-(((1-((S)-2-phenylpropyl)-1H-pyrazol-4-yl)methyl)amino)-7,8-dihydropteridin-6(5H)-one] was below 0.3 µM. On to `CC[C@@H]1C(=O)N(C)c2cnc(NCc3cnn(Cc4ccc(F)cc4)c3)nc2N1C(C)C` [Compound I-1146], for which, under “Homo sapiens, COLO 205, 5 h, R-isomer at C2 (corresponding to C2 S-isomer), 5 h”, the concentration for half-maximal inhibition (IC50) is 0.3 to 1 µM.

On to `Cc1nc(N[C@H]2C[C@H](NC(=O)Oc3ccc(F)cc3)C2)nc2c1NC(=O)[C@H](C)N2C` [Compound 465, 4-fluorophenyl (trans-3-(((S)-4,7,8-trimethyl-6-oxo-5,6,7,8-tetrahydropteridin-2-yl)amino)cyclobutyl)carbamate], for which the half-maximal inhibitory concentration (IC50) (Homo sapiens, 5 h, five hours after addition of compound) fell in the range of 0.3 to 1 µM. Regarding `Cc1nc(N[C@H]2C[C@@H](COc3ccc(F)cc3Cl)C2)nc2c1NC(=O)[C@H](C)N2C` [Compound 282, (7S)-2-((cis-3-((2-chloro-4-fluorophenoxy)methyl)cyclobutyl)amino)-4,7,8-trimethyl-7,8-dihydropteridin-6(5H)-one], the IC50 under setting [1] was below 0.3 µM. Regarding `Cc1nc(NCc2ccc(OCc3ccc(F)cc3)nc2)nc2c1NC(=O)[C@H](C)N2C` [Compound 57, (7S)-2-(((6-((4-fluorobenzyl)oxy)pyridin-3-yl)methyl)amino)-4,7,8-trimethyl-7,8-dihydropteridin-6(5H)-one], under setting [1], the IC50 was below 0.3 µM. Take “(7S)-7-(2-hydroxyethyl)-4-methyl-2-(((1-((6-(trifluoromethyl)pyridin-3-yl)methyl)-1H-pyrazol-4-yl)methyl)amino)-7,8-dihydropteridin-6(5H)-one [Compound 440]”: the IC50 (five hours after addition of compound) is below 0.3 µM. Regarding `Cc1nc(NCc2ccc(-c3ccc(F)cc3)o2)nc2c1NC(=O)[C@H](C)N2C` [Compound 40, (7S)-2-(((5-(4-Fluorophenyl)furan-2-yl)methyl)amino)-4,7,8-trimethyl-7,8-dihydropteridin-6(5H)-one], the IC50 under setting [1] was in the range of 1 to 5 µM. In the case of `Cc1nc(N[C@H]2C[C@@H](COc3ccc(F)cc3)C2)nc2c1NC(=O)[C@H](C)N2C` [Compound 261, (7S)-2-((cis-3-((4-fluorophenoxy)methyl)cyclobutyl)amino)-4,7,8-trimethyl-7,8-dihydropteridin-6(5H)-one], the IC50 under setting [1] was below 0.3 µM. As for `Cc1nc(NCc2cnn(Cc3cncc(F)c3)c2)nc2c1NC(=O)[C@H](C)N2C` [Compound 208, (7S)-2-(((1-((5-fluoropyridin-3-yl)methyl)-1H-pyrazol-4-yl)methyl)amino)-4,7,8-trimethyl-7,8-dihydropteridin-6(5H)-one], the half-maximal inhibitory concentration (IC50) under setting [1] was below 0.3 µM. Same read-out and setting: the value for `CO[C@H](C)[C@H]1C(=O)Nc2c(C)nc(NCc3cnn(Cc4ccc(C(F)(F)F)nc4)c3)nc2N1C` [Compound 498, (S)-7-((R)-1-methoxyethyl)-4,8-dimethyl-2-(((1-((6-(trifluoromethyl)pyridin-3-yl)methyl)-1H-pyrazol-4-yl)methyl)amino)-7,8-dihydropteridin-6(5H)-one] was below 0.3 µM; that for `Cc1nc(N[C@H]2C[C@H](Oc3cc(F)c(F)c(F)c3)C2)nc2c1N(CC(F)(F)F)C(=O)[C@H](C)N2C` [Compound 313, (7S)-4,7,8-trimethyl-5-(2,2,2-trifluoroethyl)-2-((trans-3-(3,4,5-trifluorophenoxy)cyclobutyl)-amino)-7,8-dihydropteridin-6(5H)-one] was at least 5 µM; that for `C[C@H]1C(=O)Nc2c(CO)nc(NCc3cnn(Cc4ccc(C(F)(F)F)nc4)c3)nc2N1C` [Compound 487, (7S)-4-(hydroxymethyl)-7,8-dimethyl-2-(((1-((6-(trifluoromethyl)pyridin-3-yl)methyl)-1H-pyrazol-4-yl)methyl)amino)-7,8-dihydropteridin-6(5H)-one] was 0.3 to 1 µM. As to `Cc1nc(N[C@H]2C[C@@H](Sc3ccc(C(F)(F)F)cc3)C2)nc2c1NC(=O)[C@H](C)N2C` [Compound 321, (7S)-4,7,8-trimethyl-2-((cis-3-((4-(trifluoromethyl)phenyl)thio)cyclobutyl)amino)-7,8-dihydropteridin-6(5H)-one], the IC50 under setting [1] was in the range of 0.3 to 1 µM.

For the compound `COc1ccc(O[C@H]2C[C@H](Nc3nc(C)c4c(n3)N(C)[C@@H](C)C(=O)N4)C2)c(F)c1` [Compound 354, (7S)-2-((trans-3-(2-fluoro-4-methoxyphenoxy)cyclobutyl)amino)-4,7,8-trimethyl-7,8-dihydropteridin-6(5H)-one], the IC50 under setting [1] fell in the range of 1 to 5 µM.

As for `Cc1nc(N[C@H]2C[C@@H](Nc3nc(C(F)(F)F)nn3C)C2)nc2c1NC(=O)[C@H](C(C)C)N2C` [Compound 569, (S)-7-isopropyl-4,8-dimethyl-2-((cis-3-((1-methyl-3-(trifluoromethyl)-1H-1,2,4-triazol-5-yl)amino)cyclobutyl)amino)-7,8-dihydropteridin-6(5H)-one], the IC50 under setting [1] fell in the range of 1 to 5 µM. The same measure, in the same setting: the value for `COC1(C2C(=O)Nc3c(C)nc(NCc4cnn(Cc5ccc(C(F)(F)F)nc5)c4)nc3N2C)CC1` (centres unmarked) [Compound 665, 7-(1-methoxycyclopropyl)-4,8-dimethyl-2-(((1-((6-(trifluoromethyl)pyridin-3-yl)methyl)-1H-pyrazol-4-yl)methyl)amino)-7,8-dihydropteridin-6(5H)-one] was 0.3 to 1 µM. Consider `Cc1nc(NC2CN(C(=O)c3cc(F)c(F)c(F)c3)C2)nc2c1NC(=O)[C@H](C)N2C` [Compound 740, (S)-4,7,8-trimethyl-2-((1-(3,4,5-trifluorobenzoyl)azetidin-3-yl)amino)-7,8-dihydropteridin-6(5H)-one], for which the IC50 under setting [1] lay in the range of 0.3 to 1 µM. As for `Cc1cc(F)ncc1Cn1cc(CNc2nc(C)c3c(n2)N(C)[C@@H](C)C(=O)N3C)cn1` [Compound 205, (7S)-2-(((1-((6-fluoro-4-methylpyridin-3-yl)methyl)-1H-pyrazol-4-yl)methyl)amino)-4,5,7,8-tetramethyl-7,8-dihydropteridin-6(5H)-one], the concentration for half-maximal inhibition (IC50) under setting [1] is 0.3 to 1 µM. With `Cc1nc(NCc2cnn(Cc3ccc(Cl)nc3)c2)nc2c1NC(=O)[C@H](CC(C)C)N2C` [Compound 550, (S)-2-(((1-((6-chloropyridin-3-yl)methyl)-1H-pyrazol-4-yl)methyl)amino)-7-isobutyl-4,8-dimethyl-7,8-dihydropteridin-6(5H)-one], under setting [1], the concentration for half-maximal inhibition (IC50) is below 0.3 µM. Still for that read-out and setting: then `Cc1nc(NCc2cnn(C[C@H](O)c3ccc(F)cc3)c2)nc2c1NC(=O)[C@H](C)N2C` [Compound 132, (7S)-2-[[1-[(2R)-2-(4-fluorophenyl)-2-hydroxy-ethyl]pyrazol-4-yl]methylamino]-4,7,8-trimethyl-5,7-dihydropteridin-6-one], with 0.3 to 1 µM. As for `Cc1nc(NCc2cnn(Cc3ccc(F)c(F)c3)c2)nc2c1NC(=O)[C@H](C)N2C` [Compound 140, (7S)-2-(((1-(3,4-difluorobenzyl)-1H-pyrazol-4-yl)methyl)amino)-4,7,8-trimethyl-7,8-dihydropteridin-6(5H)-one], the concentration for half-maximal inhibition (IC50) under setting [1] is below 0.3 µM.
